Assay results: ChEMBL document CHEMBL1201862, “PubChem BioAssay data set” (2004)
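A five-concentration, 48-hour dose response in 96-well plates underlies each endpoint, interpolated linearly between surrounding concentrations. GI50 = concentration required for 50% inhibition of growth.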 Active and inactive are the calls of the source. No stated cut-off is given here; in the data, active = GI50 up to about 1.1 µM and inactive = higher.

Tests used:
Assay in all cases: inhibition of tumour cell growth, NCI panel, 48 h
[1] = tested on: 786-0
[2] = tested on: A498
[3] = tested on: A549
[4] = tested on: ACHN
[5] = tested on: CAKI-1
[6] = tested on: CCRF-CEM
[7] = tested on: COLO 205
[8] = tested on: DLD-1
[9] = tested on: DMS-114
[10] = tested on: DMS-273
[11] = tested on: EKVX
[12] = tested on: HCC 2998
[13] = tested on: HCT-116
[14] = tested on: HCT-15
[15] = tested on: HL-60
[16] = tested on: HOP-62
[17] = tested on: HOP-92
[18] = tested on: HT-29
[19] = tested on: IGROV-1
[20] = tested on: K562
[21] = tested on: KM-20L2
[22] = tested on: KM12
[23] = tested on: LOX IMVI
[24] = tested on: LXFL 529
[25] = tested on: M14
[26] = tested on: M19-MEL
[27] = tested on: MOLT-4
[28] = tested on: Malme-3M
[29] = tested on: NCI-H226
[30] = tested on: NCI-H23
[31] = tested on: NCI-H460
[32] = tested on: NCI-H522
[33] = tested on: OVCAR-3
[34] = tested on: OVCAR-4
[35] = tested on: OVCAR-5
[36] = tested on: OVCAR-8
[37] = tested on: RPMI-8226
[38] = tested on: SF-268
[39] = tested on: SF-295
[40] = tested on: SF-539
[41] = tested on: SK-MEL-28
[42] = tested on: SK-MEL-2
[43] = tested on: SK-MEL-5
[44] = tested on: SN12C
[45] = tested on: SNB-19
[46] = tested on: SNB-78
[47] = tested on: SR
[48] = tested on: SW-620
[49] = tested on: TK-10
[50] = tested on: U-251
[51] = tested on: UACC-257
[52] = tested on: UACC-62
[53] = tested on: UO-31
[54] = tested on: XF498
[55] = tested on: HOP-18
[56] = tested on: RXF 393
[57] = tested on: SK-OV-3
[58] = tested on: SNB-75

Measured: GI50

CC(=O)NNc1nc(C)c(C(=O)NNC(=O)C(=O)Nc2c([N+](=O)[O-])ccc(C)c2C)s1
inactive: [1] > 100 µM | [2] 31.6 µM | [3] > 100 µM | [4] > 100 µM | [5] > 100 µM | [6] 31 µM | [7] > 100 µM | [8] > 100 µM | [9] > 100 µM | [10] > 100 µM | [11] > 100 µM | [12] > 100 µM | [13] > 100 µM | [15] > 100 µM | [16] > 100 µM | [17] > 100 µM | [18] > 100 µM | [19] > 100 µM | [20] 41.5 µM | [21] > 100 µM | [22] > 100 µM | [23] 78.3 µM | [24] 65.2 µM | [25] > 100 µM | [26] > 100 µM | [27] 43.6 µM | [28] > 100 µM | [29] > 100 µM | [30] > 100 µM | [31] > 100 µM | [32] 50.9 µM | [33] > 100 µM | [34] 52.8 µM | [35] > 100 µM | [36] > 100 µM | [37] > 100 µM | [38] 90.6 µM | [39] > 100 µM | [40] > 100 µM | [41] > 100 µM | [42] > 100 µM | [43] > 100 µM | [44] > 100 µM | [45] > 100 µM | [46] > 100 µM | [47] 92.3 µM | [48] 76.9 µM | [49] > 100 µM | [50] > 100 µM | [51] > 100 µM | [52] > 100 µM | [53] > 100 µM | [54] > 100 µM
> 100 µM: [14]

COc1cc([C@@H]2c3cc4c(cc3[C@@H](NC(=O)c3ccc(N)cc3)C3COC(=O)[C@@H]32)OCO4)cc(OC)c1O (some centres not stated)
12.6 µM: [14]
inactive: [1] 1.36 µM | [2] 1.64 µM | [5] 5.4 µM | [7] 10.8 µM | [8] 3.47 µM | [9] 2 µM | [11] 3.62 µM | [12] 3.61 µM | [13] 2.47 µM | [55] > 100 µM | [17] 4.85 µM | [18] 2.41 µM | [19] 1.42 µM | [20] 3.52 µM | [21] 1.73 µM | [22] 2.65 µM | [23] 1.45 µM | [24] 13.9 µM | [25] 2.72 µM | [26] 12.5 µM | [28] 2.51 µM | [30] 1.3 µM | [32] 1.75 µM | [33] 7.46 µM | [34] 93.8 µM | [35] 4.49 µM | [36] 2.53 µM | [37] 1.61 µM | [56] 15.7 µM | [38] 2.41 µM | [39] 1.98 µM | [41] 5.15 µM | [42] 7.74 µM | [43] 2.81 µM | [57] 2.14 µM | [45] 1.34 µM | [58] 1.29 µM | [49] 9.68 µM | [51] 9.16 µM | [52] 1.19 µM | [53] 11.9 µM
active: [3] 0.119 µM | [4] 0.597 µM | [6] 0.292 µM | [10] 0.37 µM | [15] 0.207 µM | [16] 0.535 µM | [27] 0.0375 µM | [29] 0.881 µM | [31] < 0.01 µM | [40] 1.02 µM | [44] 0.853 µM | [48] 1.03 µM | [50] 0.362 µM

C=C(Cl)Cc1c(O)c2c(c(O)c1CC(=C)Cl)C(=O)c1ccccc1C2=O
> 100 µM: [14]
inactive: [1] > 100 µM | [3] > 100 µM | [4] > 100 µM | [5] > 100 µM | [6] > 100 µM | [7] > 100 µM | [8] > 100 µM | [9] > 100 µM | [10] > 100 µM | [11] > 100 µM | [12] > 100 µM | [15] > 100 µM | [16] > 100 µM | [19] > 100 µM | [20] > 100 µM | [21] > 100 µM | [23] > 100 µM | [24] > 100 µM | [25] > 100 µM | [27] > 100 µM | [28] > 100 µM | [34] > 100 µM | [35] > 100 µM | [36] > 100 µM | [37] > 100 µM | [42] > 100 µM | [43] > 100 µM | [57] > 100 µM | [44] > 100 µM | [47] > 100 µM | [48] > 100 µM | [49] > 100 µM | [50] > 100 µM | [52] > 100 µM | [54] > 100 µM

N/N=C(\C(=O)Nc1c(Cl)cc([N+](=O)[O-])cc1Cl)C(c1cnc2ccc([N+](=O)[O-])cc2n1)[N+](=O)[O-] (configuration not stated)
inactive: [2] > 100 µM | [3] > 100 µM | [4] > 100 µM | [5] 66.1 µM | [6] 77.1 µM | [7] > 100 µM | [8] > 100 µM | [9] 36.3 µM | [10] 38.6 µM | [11] 37.8 µM | [12] 82.2 µM | [13] > 100 µM | [15] 28.1 µM | [16] > 100 µM | [17] > 100 µM | [18] > 100 µM | [19] > 100 µM | [20] 46.6 µM | [21] > 100 µM | [22] 50.1 µM | [23] > 100 µM | [26] > 100 µM | [27] 47.6 µM | [29] 6.71 µM | [30] > 100 µM | [31] > 100 µM | [32] 9.98 µM | [34] > 100 µM | [35] > 100 µM | [36] > 100 µM | [37] 42.8 µM | [56] > 100 µM | [38] > 100 µM | [39] > 100 µM | [40] > 100 µM | [41] > 100 µM | [42] > 100 µM | [43] > 100 µM | [57] > 100 µM | [44] 95.7 µM | [45] > 100 µM | [58] 56.9 µM | [46] 40.4 µM | [47] > 100 µM | [48] 99.3 µM | [49] > 100 µM | [50] > 100 µM | [51] > 100 µM | [52] 36.9 µM | [53] 87.7 µM | [54] > 100 µM
> 100 µM: [14]
